Values of other authors in PMC10423561, “Effects of the CYP3A inhibitors, voriconazole, itraconazole, and fluconazole on the pharmacokinetics of osimertinib in rats” (PeerJ, 2023).
Where two headings read alike, the source gives them in different places.

Tests used:
[1] = parameters: method as in Fu et al., 2023; conditions: ref Fu et al., 2023, cited from earlier work
CYP3A = CYP3A probe substrate; inhibitor not stated; ref Uchida, Tanaka & Namiki, 2014; cited from earlier work

| Structure (SMILES) | increase in systemic exposure of almonertinib ([1]; with FCZ) | increase in systemic exposure of almonertinib ([1]; with VCZ) | increase in AUC0–360 of midazolam (CYP3A) |
| --- | --- | --- | --- |
| C=CC(=O)Nc1cc(Nc2nccc(-c3cn(C4CC4)c4ccccc34)n2)c(OC)cc1N(C)CCN(C)C [almonertinib] | 3.4 fold | 2.7 fold |  |
| Cc1ncc2n1-c1ccc(Cl)cc1C(c1ccccc1F)=NC2 [midazolam] |  |  | 133% |
